In patent US20090062301A1, “PHARMACEUTICAL COMBINATION COMPOSITION COMPRISING AT LEAST ONE PKC INHIBITOR AND AT LEAST ONE JA K3 KINASE INHIBITOR FOR TREATING AUTOIMMUNE DISORDERS” (priority 2006, published 2009):

Tested on: donor heart graft (rejection)
Test: Rat heart transplantation (graft survival)
Assay type: in vivo, rat (Male Lewis and BN)
Text: A. Rat Heart Transplantation
The strain combination used: Male Lewis (RT^1 haplotype) and BN (RT^1 haplotype). The animals are anaesthetised using inhalational isofluorane. […] The aorta is ligated and divided distal to the first branch and the brachiocephalic trunk is divided at the first bifurcation. The left pulmonary artery is ligated and divided and the right side divided but left open. All other vessels are dissected free, ligated and divided and the donor heart is removed into iced saline.
The recipient is prepared by dissection and cross-clamping of the infra-renal abdominal aorta and vena cava. The graft is implanted with end-to-side anastomoses, using 10/0 monofilament suture, between the donor brachiocephalic trunk and the recipient aorta and the donor right pulmonary artery to the recipient vena cava. The clamps are removed, the graft tethered retroabdominally, the abdominal contents washed with warm saline and the animal is closed and allowed to recover under a heating lamp. Graft survival is monitored by daily palpation of the beating donor heart through the abdominal wall. Rejection is considered to be complete when heart beat stops.

Structure (SMILES): C[C@@H]1CCN(C(=O)CC#N)C[C@@H]1N(C)c1ncnc2[nH]ccc12 [CP-690,550, 3-{(3R,4R)-4-methyl-3-[methyl-(7H-pyrrolo[2,3-d]pyrimidin-4-yl)-amino]-piperidin-1-yl}-3-oxo-propionitrile]
- EC50 (672 h, rat heart transplantation, CP-690,550 in mono-citrate salt form, concentration in blood, read-out: EC50 (drug concentration in blood at which 50% of the animals maintain their graft for >28 days)): 0.06 µg/mL
- graft survival (rat heart transplantation, Compound A in the acetate form at 1 to 30 mg/kg/day and CP-690,550 mono-citrate at an EC50 of 60 ng/ml): significantly increase the graft survival

Structure (SMILES): CN1CCN(c2nc(C3=C(c4c[nH]c5ccccc45)C(=O)NC3=O)c3ccccc3n2)CC1 [Compound A, 3-(1.H.-indol-3-yl)-4-[2-(4-methyl-piperazin-1-yl)-quinazolin-4-yl]-pyrrole-2,5-dione]
- graft survival (rat, in vivo): significantly increase the graft survival
